# Reference: ChEMBL document CHEMBL4665648, “Potent and selective inhibitors of receptor-interacting protein kinase 1 that lack an aromatic back pocket group” (Bioorg Med Chem Lett, 2019)
# Experiments:
# [1] = biological target: STE20-like serine/threonine-protein kinase (Homo sapiens) (UniProt Q9H2G2); assay: Inhibition of tracer 236 binding to recombinant human GST-tagged full length SLK expressed in baculovirus expression system at 10 uM incubated for 60 mins by Lanthascreen assay relative to control
# [2] = biological target: MAP kinase-interacting serine/threonine-protein kinase 1 (Homo sapiens) (UniProt Q9BUB5); assay: Inhibition of recombinant human GST-tagged full length MKNK1 expressed in insect expression system using Ser/Thr 07 as substrate at 10 uM incubated for 60 mins by Z'-lyte assay relative to control
# [3] = biological target: Tyrosine-protein kinase JAK3 (Homo sapiens) (UniProt P52333); assay: Inhibition of recombinant human GST-tagged JAK3 (781 to 1124 residues) expressed in baculovirus expression system using Tyr 06 as substrate at 10 uM incubated for 60 mins by Z'-lyte assay relative to control
# [4] = biological target: Serine/threonine-protein kinase WNK2 (Homo sapiens) (UniProt Q9Y3S1); assay: Inhibition of tracer 178 binding to recombinant human GST-tagged WNK2 (166 to 489 residues) expressed in baculovirus expression system at 10 uM incubated for 60 mins by Lanthascreen assay relative to control
# [5] = biological target: Mitogen-activated protein kinase kinase kinase kinase 5 (Homo sapiens) (UniProt Q9Y4K4); assay: Inhibition of recombinant human GST-tagged full length KHS1 expressed in baculovirus expression system using Ser/Thr 07 as substrate at 10 uM incubated for 60 mins by Z'-lyte assay relative to control
# [6] = biological target: Tyrosine-protein kinase ABL1 (Homo sapiens) (UniProt P00519); assay: Inhibition of recombinant human His-tagged full length Abl expressed in baculovirus expression system using Tyr 02 as substrate at 10 uM incubated for 60 mins by Z'-Lyte assay relative to control
# [7] = biological target: Tyrosine-protein kinase receptor UFO (Homo sapiens) (UniProt P30530); assay: Inhibition of recombinant human GST-tagged full length AXL expressed in insect expression system using Tyr 06 as substrate at 10 uM incubated for 60 mins by Z'-Lyte assay relative to control
# [8] = biological target: Wee1-like protein kinase (Homo sapiens) (UniProt P30291); assay: Inhibition of tracer 178 binding to recombinant human N-terminal GST-tagged full length WEE1 expressed in baculovirus expression system at 10 uM incubated for 60 mins by Lanthascreen assay relative to control
# [9] = biological target: Bone morphogenetic protein receptor type-1A (Homo sapiens) (UniProt P36894); assay: Inhibition of tracer 178 binding to recombinant human N-terminal GST-tagged full length BMPR1A expressed in insect expression system at 10 uM incubated for 60 mins by Lanthascreen assay relative to control
# [10] = biological target: Receptor tyrosine-protein kinase erbB-2 (Homo sapiens) (UniProt P04626); assay: Inhibition of recombinant human His-tagged ERBB2 (676 to 1255 residues) expressed in baculovirus expression system using Tyr 06 as substrate at 10 uM incubated for 60 mins by Z'-Lyte assay relative to control
# [11] = biological target: Mitogen-activated protein kinase kinase kinase 10 (Homo sapiens) (UniProt Q02779); assay: Inhibition of tracer 236 binding to recombinant human GST-tagged full length MLK2 expressed in baculovirus expression system at 10 uM incubated for 60 mins by Lanthascreen assay relative to control
# [12] = biological target: Tyrosine-protein kinase SYK (Homo sapiens) (UniProt P43405); assay: Inhibition of recombinant human N-terminalGST-tagged full length SYK expressed in baculovirus expression system using Tyr 02 as substrate at 10 uM incubated for 60 mins by Z'-Lyte assay relative to control
# [13] = biological target: Ephrin type-A receptor 1 (Homo sapiens) (UniProt P21709); assay: Inhibition of recombinant human GST-tagged EPHA1 (568 to 976 residues) expressed in baculovirus expression system using Tyr 02 as substrate at 10 uM incubated for 60 mins by Z'-Lyte assay relative to control
# [14] = biological target: Inhibitor of nuclear factor kappa-B kinase subunit alpha (Homo sapiens) (UniProt O15111); assay: Inhibition of recombinant human His-tagged full length IKKalpha expressed in baculovirus expression system at 10 uM incubated for 60 mins by Adapta assay relative to control
# [15] = biological target: Mitogen-activated protein kinase 11 (Homo sapiens) (UniProt Q15759); assay: Inhibition of recombinant human His-tagged full length p38 beta expressed in baculovirus expression system using Ser/Thr 15 as substrate at 10 uM incubated for 60 mins by Z'-Lyte assay relative to control
# [16] = biological target: Serine/threonine-protein kinase pim-1 (Homo sapiens) (UniProt P11309); assay: Inhibition of recombinant human His-tagged full length PIM1 expressed in baculovirus expression system using Ser/Thr 07 as substrate at 10 uM incubated for 60 mins by Z'-lyte assay relative to control
# [17] = biological target: Mitogen-activated protein kinase kinase kinase 9 (Homo sapiens) (UniProt P80192); assay: Inhibition of recombinant human GST-tagged MLK1 (1 to 500 residues) expressed in baculovirus expression system using Ser/Thr 07 as substrate at 10 uM incubated for 60 mins by Z'-lyte assay relative to control
# [18] = biological target: Serine/threonine-protein kinase PAK 3 (Homo sapiens) (UniProt O75914); assay: Inhibition of recombinant human His-tagged full length PAK3 expressed in baculovirus expression system using Ser/Thr 20 as substrate at 10 uM incubated for 60 mins by Z'-lyte assay relative to control
# [19] = biological target: Tyrosine-protein kinase receptor TYRO3 (Homo sapiens) (UniProt Q06418); assay: Inhibition of recombinant human GST-tagged full length RSE (451 to 890 residues) expressed in baculovirus expression system using Tyr 02 as substrate at 10 uM incubated for 60 mins by Z'-Lyte assay relative to control
# [20] = biological target: Mitogen-activated protein kinase 13 (Homo sapiens) (UniProt O15264); assay: Inhibition of recombinant human His-tagged full length p38 delta expressed in baculovirus expression system using Ser/Thr 03 as substrate at 10 uM incubated for 60 mins by Z'-Lyte assay relative to control
# [21] = biological target: cGMP-dependent protein kinase 1 (Homo sapiens) (UniProt Q13976); assay: Inhibition of recombinant human GST-tagged full length […] expressed in baculovirus expression system using Ser/Thr 01 as substrate at 10 uM incubated for 60 mins by Z'-lyte assay relative to control
# [22] = biological target: G protein-coupled receptor kinase 5 (Homo sapiens) (UniProt P34947); assay: Inhibition of recombinant human GST-tagged full length GRK5 expressed in baculovirus expression system using Ser/Thr 16 as substrate at 10 uM incubated for 60 mins by Z'-Lyte assay relative to control
# [23] = biological target: SRSF protein kinase 3 (Homo sapiens) (UniProt Q9UPE1); assay: Inhibition of recombinant human GST-tagged full length MSSK1 expressed in baculovirus expression system using Ser/Thr 13 as substrate at 10 uM incubated for 60 mins by Z'-lyte assay relative to control
# [24] = biological target: LIM domain kinase 1 (Homo sapiens) (UniProt P53667); assay: Inhibition of tracer 236 binding to recombinant human His-tagged LIMK1 (285 to 638 residues) expressed in baculovirus expression system at 10 uM incubated for 60 mins by Lanthascreen assay relative to control
# Chain of LIM domain kinase 1 (Homo sapiens) (P53667 whole entry, looked up, the tested form may be a part): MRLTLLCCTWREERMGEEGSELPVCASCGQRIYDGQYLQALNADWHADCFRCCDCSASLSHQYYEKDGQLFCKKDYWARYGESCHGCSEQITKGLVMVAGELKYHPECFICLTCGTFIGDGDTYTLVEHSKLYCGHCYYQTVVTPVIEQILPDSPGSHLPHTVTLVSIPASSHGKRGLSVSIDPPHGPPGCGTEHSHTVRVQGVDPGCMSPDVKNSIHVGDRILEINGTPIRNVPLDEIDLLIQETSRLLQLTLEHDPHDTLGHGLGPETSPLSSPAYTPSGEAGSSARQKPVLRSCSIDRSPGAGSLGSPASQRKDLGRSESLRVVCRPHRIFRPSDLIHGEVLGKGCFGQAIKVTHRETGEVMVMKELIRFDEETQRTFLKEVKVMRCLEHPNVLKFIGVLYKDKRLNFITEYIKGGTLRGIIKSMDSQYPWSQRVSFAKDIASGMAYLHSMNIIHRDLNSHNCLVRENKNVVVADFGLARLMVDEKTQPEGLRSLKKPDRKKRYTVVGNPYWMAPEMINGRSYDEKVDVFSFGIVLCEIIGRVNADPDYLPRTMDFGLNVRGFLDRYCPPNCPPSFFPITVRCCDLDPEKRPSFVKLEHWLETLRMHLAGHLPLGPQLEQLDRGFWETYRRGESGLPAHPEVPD
# Chain of Bone morphogenetic protein receptor type-1A (Homo sapiens) (P36894 whole entry, the tested form may be a part): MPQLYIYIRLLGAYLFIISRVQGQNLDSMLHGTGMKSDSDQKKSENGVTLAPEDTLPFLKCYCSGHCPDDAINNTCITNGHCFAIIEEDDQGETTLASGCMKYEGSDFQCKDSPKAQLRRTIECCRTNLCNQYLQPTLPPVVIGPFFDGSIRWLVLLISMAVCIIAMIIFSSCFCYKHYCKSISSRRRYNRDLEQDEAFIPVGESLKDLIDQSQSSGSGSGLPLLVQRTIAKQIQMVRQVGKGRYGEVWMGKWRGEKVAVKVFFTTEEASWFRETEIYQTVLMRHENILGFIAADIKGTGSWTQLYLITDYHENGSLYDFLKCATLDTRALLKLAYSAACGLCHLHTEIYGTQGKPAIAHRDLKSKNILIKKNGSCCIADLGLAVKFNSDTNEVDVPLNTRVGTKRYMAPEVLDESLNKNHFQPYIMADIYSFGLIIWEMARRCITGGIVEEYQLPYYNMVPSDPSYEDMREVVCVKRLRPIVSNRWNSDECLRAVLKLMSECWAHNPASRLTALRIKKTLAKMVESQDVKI
# Chain of G protein-coupled receptor kinase 5 (Homo sapiens) (P34947 whole entry, looked up): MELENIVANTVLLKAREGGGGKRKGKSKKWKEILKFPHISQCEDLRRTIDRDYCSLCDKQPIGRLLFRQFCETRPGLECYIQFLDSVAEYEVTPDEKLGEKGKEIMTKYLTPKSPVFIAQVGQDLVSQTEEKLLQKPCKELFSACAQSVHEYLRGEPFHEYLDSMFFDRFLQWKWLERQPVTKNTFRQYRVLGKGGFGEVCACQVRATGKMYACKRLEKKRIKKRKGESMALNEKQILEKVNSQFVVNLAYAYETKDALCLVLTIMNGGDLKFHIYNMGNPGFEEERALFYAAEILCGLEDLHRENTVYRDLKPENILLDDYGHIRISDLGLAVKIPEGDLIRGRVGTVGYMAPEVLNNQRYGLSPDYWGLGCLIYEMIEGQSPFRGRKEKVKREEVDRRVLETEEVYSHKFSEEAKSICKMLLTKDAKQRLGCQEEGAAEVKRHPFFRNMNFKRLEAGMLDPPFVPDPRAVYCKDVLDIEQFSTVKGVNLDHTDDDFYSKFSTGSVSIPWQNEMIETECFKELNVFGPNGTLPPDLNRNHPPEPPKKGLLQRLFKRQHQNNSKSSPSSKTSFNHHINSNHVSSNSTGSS
# Chain of Tyrosine-protein kinase receptor TYRO3 (Homo sapiens) (Q06418 whole entry, the tested form may be a part): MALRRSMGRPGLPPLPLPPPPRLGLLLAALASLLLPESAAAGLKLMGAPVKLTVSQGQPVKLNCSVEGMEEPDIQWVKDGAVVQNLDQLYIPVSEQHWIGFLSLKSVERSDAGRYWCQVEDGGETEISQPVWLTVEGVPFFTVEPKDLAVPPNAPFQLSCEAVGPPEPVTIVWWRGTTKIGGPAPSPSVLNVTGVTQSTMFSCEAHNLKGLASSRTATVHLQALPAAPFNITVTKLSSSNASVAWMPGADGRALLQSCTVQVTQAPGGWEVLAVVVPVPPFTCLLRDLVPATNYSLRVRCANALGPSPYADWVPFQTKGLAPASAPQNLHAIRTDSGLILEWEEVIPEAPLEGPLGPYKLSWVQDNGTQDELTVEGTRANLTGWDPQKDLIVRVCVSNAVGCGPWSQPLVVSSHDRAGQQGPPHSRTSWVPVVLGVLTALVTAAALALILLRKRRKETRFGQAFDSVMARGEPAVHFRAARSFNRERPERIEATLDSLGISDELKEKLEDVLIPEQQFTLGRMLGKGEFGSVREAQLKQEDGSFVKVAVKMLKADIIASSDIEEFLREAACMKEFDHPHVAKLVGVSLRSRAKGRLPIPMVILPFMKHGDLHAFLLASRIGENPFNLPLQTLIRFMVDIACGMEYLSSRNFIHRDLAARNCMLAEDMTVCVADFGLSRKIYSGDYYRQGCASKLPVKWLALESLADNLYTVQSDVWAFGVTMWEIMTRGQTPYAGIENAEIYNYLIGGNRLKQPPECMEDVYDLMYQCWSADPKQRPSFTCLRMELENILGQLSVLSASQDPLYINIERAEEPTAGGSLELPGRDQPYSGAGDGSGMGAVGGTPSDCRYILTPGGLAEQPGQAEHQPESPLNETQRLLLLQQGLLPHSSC
# Chain of Ephrin type-A receptor 1 (Homo sapiens) (P21709 whole entry, the tested form may be a part): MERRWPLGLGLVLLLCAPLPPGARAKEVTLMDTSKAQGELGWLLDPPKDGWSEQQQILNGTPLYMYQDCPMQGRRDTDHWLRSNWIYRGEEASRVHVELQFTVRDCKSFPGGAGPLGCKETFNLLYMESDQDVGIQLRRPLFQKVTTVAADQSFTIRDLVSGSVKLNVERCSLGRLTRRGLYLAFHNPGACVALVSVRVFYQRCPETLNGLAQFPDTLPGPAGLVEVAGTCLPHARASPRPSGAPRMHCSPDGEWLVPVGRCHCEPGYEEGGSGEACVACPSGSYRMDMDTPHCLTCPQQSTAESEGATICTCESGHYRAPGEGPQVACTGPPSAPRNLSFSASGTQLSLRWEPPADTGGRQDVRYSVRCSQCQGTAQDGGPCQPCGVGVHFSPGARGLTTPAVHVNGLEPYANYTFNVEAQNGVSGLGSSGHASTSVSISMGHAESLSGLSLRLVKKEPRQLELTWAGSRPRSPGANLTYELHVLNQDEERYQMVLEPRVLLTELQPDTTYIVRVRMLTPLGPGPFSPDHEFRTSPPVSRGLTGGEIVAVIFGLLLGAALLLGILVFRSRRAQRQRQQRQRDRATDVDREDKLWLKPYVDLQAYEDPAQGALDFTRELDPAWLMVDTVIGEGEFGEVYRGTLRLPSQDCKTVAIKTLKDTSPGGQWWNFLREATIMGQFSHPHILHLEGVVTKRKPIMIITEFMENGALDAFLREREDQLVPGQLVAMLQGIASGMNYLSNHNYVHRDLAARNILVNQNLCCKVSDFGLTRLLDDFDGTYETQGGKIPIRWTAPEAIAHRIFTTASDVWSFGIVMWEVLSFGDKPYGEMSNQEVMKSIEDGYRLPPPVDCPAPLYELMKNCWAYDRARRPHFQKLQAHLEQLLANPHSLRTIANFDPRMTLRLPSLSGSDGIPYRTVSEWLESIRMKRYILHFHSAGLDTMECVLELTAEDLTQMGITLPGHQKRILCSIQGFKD
# Chain of Tyrosine-protein kinase JAK3 (Homo sapiens) (P52333 whole entry, the tested form may be a part): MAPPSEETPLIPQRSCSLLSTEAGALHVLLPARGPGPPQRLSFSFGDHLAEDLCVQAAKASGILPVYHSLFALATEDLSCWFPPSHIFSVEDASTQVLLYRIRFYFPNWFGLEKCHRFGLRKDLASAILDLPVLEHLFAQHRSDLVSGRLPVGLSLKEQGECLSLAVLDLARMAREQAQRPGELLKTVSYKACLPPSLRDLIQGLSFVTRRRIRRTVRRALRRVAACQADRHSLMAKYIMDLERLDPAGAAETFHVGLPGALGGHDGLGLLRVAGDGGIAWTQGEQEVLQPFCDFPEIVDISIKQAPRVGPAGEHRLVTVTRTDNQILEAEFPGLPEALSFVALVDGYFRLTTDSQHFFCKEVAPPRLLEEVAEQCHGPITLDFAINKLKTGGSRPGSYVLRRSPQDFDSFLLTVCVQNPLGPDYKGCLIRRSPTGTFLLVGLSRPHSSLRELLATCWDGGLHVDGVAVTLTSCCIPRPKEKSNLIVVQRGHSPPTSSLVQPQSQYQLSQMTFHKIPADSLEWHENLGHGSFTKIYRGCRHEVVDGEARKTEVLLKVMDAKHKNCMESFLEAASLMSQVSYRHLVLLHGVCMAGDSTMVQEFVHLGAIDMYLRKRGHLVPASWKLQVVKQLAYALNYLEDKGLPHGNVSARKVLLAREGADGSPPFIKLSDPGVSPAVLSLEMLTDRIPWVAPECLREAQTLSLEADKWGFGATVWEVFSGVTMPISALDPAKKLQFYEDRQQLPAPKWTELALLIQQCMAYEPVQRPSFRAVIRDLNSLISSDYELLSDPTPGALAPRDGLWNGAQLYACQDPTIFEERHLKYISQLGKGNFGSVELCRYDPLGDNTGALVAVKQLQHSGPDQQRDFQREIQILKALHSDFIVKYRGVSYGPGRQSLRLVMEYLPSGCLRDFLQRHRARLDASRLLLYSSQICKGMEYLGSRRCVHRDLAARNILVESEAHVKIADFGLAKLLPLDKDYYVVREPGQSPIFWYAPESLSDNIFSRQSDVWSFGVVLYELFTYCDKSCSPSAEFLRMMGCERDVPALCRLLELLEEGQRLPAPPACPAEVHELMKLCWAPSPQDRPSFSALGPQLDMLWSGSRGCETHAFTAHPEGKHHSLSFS
# Chain of Serine/threonine-protein kinase pim-1 (Homo sapiens) (P11309 whole entry, looked up, the tested form may be a part): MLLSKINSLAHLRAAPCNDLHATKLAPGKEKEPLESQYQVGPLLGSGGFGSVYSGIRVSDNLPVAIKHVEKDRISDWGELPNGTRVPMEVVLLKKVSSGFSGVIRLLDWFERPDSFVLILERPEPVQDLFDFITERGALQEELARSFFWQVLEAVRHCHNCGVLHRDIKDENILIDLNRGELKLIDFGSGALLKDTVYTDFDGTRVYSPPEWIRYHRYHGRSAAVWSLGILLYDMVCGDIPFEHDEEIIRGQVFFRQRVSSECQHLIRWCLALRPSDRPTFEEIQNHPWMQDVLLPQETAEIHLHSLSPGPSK
compound,measurement,setting,value
CN1C(=O)[C@@H](NC(=O)c2n[nH]c3ncc(C(F)(F)C(F)(F)F)cc23)COc2ccccc21,inhibition,[1],5%
same,inhibition,[2],7%
same,inhibition,[3],1.5%
same,inhibition,[4],5%
same,inhibition,[5],-0.5%
same,inhibition,[6],5%
same,inhibition,[7],6.5%
same,inhibition,[8],4%
same,inhibition,[9],5%
same,inhibition,[10],2%
same,inhibition,[11],13.5%
same,inhibition,[12],6%
same,inhibition,[13],6.5%
same,inhibition,[14],-4%
same,inhibition,[15],9%
same,inhibition,[16],-5%
same,inhibition,[17],9%
same,inhibition,[18],8%
same,inhibition,[19],1.5%
same,inhibition,[20],5.5%
same,inhibition,[21],0.5%
same,inhibition,[22],7.5%
same,inhibition,[23],6.5%
same,inhibition,[24],5%
